Activity calls are given as the source filed them. The calls are words filed in the database; no cut-off is given here.
Columns and labels:
[1] = biological target: T1, Estrogen receptor (Homo sapiens) (UniProt P03372); test: Binding affinity to human ERalpha assessed as relative binding affinity incubated under vibration for 1 min followed by 2 hrs incubation under dark condition by fluorescence polarization assay relative to estradiol; details: time 121.0 min
T1 sequence (whole entry): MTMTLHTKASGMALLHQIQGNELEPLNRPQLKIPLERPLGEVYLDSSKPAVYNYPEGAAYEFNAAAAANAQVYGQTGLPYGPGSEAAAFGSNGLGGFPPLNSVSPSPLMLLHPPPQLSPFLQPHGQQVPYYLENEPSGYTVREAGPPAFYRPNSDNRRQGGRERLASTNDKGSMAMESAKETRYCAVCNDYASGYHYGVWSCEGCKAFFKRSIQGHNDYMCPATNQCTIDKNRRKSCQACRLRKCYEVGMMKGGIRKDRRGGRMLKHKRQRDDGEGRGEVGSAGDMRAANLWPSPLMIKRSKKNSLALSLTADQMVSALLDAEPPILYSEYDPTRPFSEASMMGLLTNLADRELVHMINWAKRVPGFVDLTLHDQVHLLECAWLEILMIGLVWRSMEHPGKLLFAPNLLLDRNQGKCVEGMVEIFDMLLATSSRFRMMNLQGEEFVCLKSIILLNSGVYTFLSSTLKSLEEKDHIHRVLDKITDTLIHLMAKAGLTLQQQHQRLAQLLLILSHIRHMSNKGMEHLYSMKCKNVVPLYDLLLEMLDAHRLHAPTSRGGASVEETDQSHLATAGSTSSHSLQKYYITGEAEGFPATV

[2] = biological target: Estrogen receptor beta (Homo sapiens) (UniProt Q92731); test: Binding affinity to human ERbeta assessed as relative binding affinity incubated under vibration for 1 min followed by 2 hrs incubation under dark condition by fluorescence polarization assay relative to estradiol; details: time 121.0 min
Homo sapiens = organism: Homo sapiens; test: Selectivity ratio of relative binding affinity for human ERalpha to relative binding affinity to human ERbeta
MCF7 = test: Antiproliferative activity against ERalpha positive human MCF7 cells assessed as inhibition of cell proliferation incubated for 72 hrs by CCK8 assay; format: functional, cell-based; details: MCF7, 72 h
T47D [3] = test: Antiproliferative activity against ERalpha positive human T47D cells assessed as inhibition of cell proliferation incubated for 72 hrs by CCK8 assay; format: functional, cell-based
[4] = Cytotoxicity against human MCF-10A cells assessed as inhibition of cell proliferation incubated for 72 hrs by CCK8 assay; format: toxicity, cell-based
[5] = Selectivity index, ratio of IC50 for cytotoxicity against human MCF-10A cells to IC50 for antiproliferative activity against human MCF7 cells; format: toxicity, cell-based; details: MCF-10A cells and MCF7 cells, read-out: Ratio IC50
[6] = Antiproliferative activity against human Tamoxifen-resistant LCC2 cells assessed as inhibition of cell proliferation incubated for 72 hrs by CCK8 assay; format: functional, cell-based
T47D [7] = test: Antiproliferative activity against human T47D cells harboring ERalpha D538G mutant assessed as inhibition of cell proliferation incubated for 72 hrs by CCK8 assay; format: functional, cell-based
T47D [8] = test: Antiproliferative activity against human T47D cells harboring ERalpha Y537S mutant assessed as inhibition of cell proliferation incubated for 72 hrs by CCK8 assay; format: functional, cell-based
[9] = biological target: T1, Estrogen receptor (Homo sapiens); test: Induction of ERalpha degradation in human MCF7 cells at 5 uM incubated for 24 hrs by Western blot analysis relative to SeCN-OBHSA derivatives; format: cell-based

Sequence of Estrogen receptor beta (Homo sapiens) (Q92731 whole entry): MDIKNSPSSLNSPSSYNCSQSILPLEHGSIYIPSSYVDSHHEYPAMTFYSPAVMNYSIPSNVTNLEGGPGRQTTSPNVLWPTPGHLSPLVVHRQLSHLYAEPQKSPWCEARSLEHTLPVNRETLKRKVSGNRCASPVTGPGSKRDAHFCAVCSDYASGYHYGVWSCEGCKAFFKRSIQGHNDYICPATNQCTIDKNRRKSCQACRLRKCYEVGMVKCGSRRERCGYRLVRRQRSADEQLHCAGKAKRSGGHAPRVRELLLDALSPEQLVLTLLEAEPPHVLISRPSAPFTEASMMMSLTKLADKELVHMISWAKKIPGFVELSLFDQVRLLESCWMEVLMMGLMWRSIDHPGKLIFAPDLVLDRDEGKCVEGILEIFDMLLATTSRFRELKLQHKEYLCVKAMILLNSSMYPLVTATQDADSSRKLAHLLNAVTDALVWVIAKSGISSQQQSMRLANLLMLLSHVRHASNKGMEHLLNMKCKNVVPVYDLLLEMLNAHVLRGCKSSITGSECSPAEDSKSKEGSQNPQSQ

Row | SMILES | RBA [1] | RBA [2] | Selectivity ratio (Homo sapiens) | IC50 (MCF7) | IC50 (T47D [3]) | IC50 at 72 h [4] | selectivity ratio [5] | IC50 [6] | IC50 (T47D [7]) | IC50 (T47D [8]) | Activity [9]
1 | N#C[Se]CCCCCC(=O)Nc1ccc(C2=C(c3ccc(O)cc3)C3CC(S(=O)(=O)N(CC(F)(F)F)c4ccccc4)C2O3)cc1 (stereo not given) | 0.39% | 0.03% | 13 | 1.89 µM | 27.7 µM | 57.6 µM | 30.5 | 20.2 µM | 17.4 µM | 18.9 µM | Active
2 | CCN(c1ccc(OC)cc1)S(=O)(=O)C1CC2OC1C(c1ccc(NC(=O)CCC[Se]C#N)cc1)=C2c1ccc(O)cc1 (stereo not given) | 1.07% | 0.17% | 6.29 | 1.63 µM | 7.44 µM | > 100 µM | > 61.4 | 17.4 µM | 8.97 µM | 6.69 µM | Active
3 | COc1ccc(N(CC(F)(F)F)S(=O)(=O)C2CC3OC2C(c2ccc(NC(=O)CCCCCCC[Se]C#N)cc2)=C3c2ccc(O)cc2)cc1 (stereo not given) | 0.76% | 0.09% | 8.44 | 0.44 µM | 20.2 µM | 38.2 µM | 86.8 | 10.3 µM | 12.7 µM | 6.27 µM | Active
4 | CCN(c1cccc(Cl)c1)S(=O)(=O)C1CC2OC1C(c1ccc(NC(=O)CCCCC[Se]C#N)cc1)=C2c1ccc(O)cc1 (stereo not given) | 5.56% | 0.09% | 61.8 | 0.28 µM | 3.83 µM | 9.23 µM | 33 | 2.61 µM | 1.91 µM | 3.03 µM | Active
5 | CCN(c1ccc(OC)cc1)S(=O)(=O)C1CC2OC1C(c1ccc(NC(=O)CCCCC[Se]C#N)cc1)=C2c1ccc(O)cc1 (stereo not given) | 7.3% | 0.01% | 730 | 0.33 µM | 6.66 µM | 37.9 µM | 115 | 5.8 µM | 4.76 µM | 4.92 µM | Active
6 | CCN(c1cccc(OC)c1)S(=O)(=O)C1CC2OC1C(c1ccc(NC(=O)CCCCC[Se]C#N)cc1)=C2c1ccc(O)cc1 (stereo not given) | 0.51% | 0.2% | 2.55 | 2.81 µM | 14.2 µM | 91.5 µM | 32.5 | 13.3 µM | 19.8 µM | 9.25 µM | Active
7 | CCN(c1ccc(OC)cc1)S(=O)(=O)C1CC2OC1C(c1ccc(NC(=O)CCCCCCC[Se]C#N)cc1)=C2c1ccc(O)cc1 (stereo not given) | 2.61% | 0.1% | 26.1 | 0.66 µM | 18 µM | 29.8 µM | 45.1 | 13.4 µM | 7.35 µM | 7.01 µM | Active
8 | N#C[Se]CCCCCC(=O)Nc1ccc(C2=C(c3ccc(O)cc3)C3CC(S(=O)(=O)N(CC(F)(F)F)c4cccc(Cl)c4)C2O3)cc1 (stereo not given) | 4.4% | 0.06% | 73.3 | 1.09 µM | 4.26 µM | 49.1 µM | 45 | 3.96 µM | 3.42 µM | 3.76 µM | Active
9 | N#C[Se]CCCCCC(=O)Nc1ccc(C2=C(c3ccc(O)cc3)C3CC(S(=O)(=O)N(CC(F)(F)F)c4cccc(F)c4)C2O3)cc1 (stereo not given) | 4.64% | 0.1% | 46.4 | 0.31 µM | 2.87 µM | 4.74 µM | 15.3 | 1.97 µM | 2.86 µM | 3.38 µM | Active
10 | CCN(c1ccccc1OC)S(=O)(=O)C1CC2OC1C(c1ccc(NC(=O)CCCCC[Se]C#N)cc1)=C2c1ccc(O)cc1 (stereo not given) | 2.82% | 0.03% | 94 | 0.42 µM | 3.93 µM | 15.9 µM | 37.9 | 6.56 µM | 5.52 µM | 3.69 µM | Active

Reference: ChEMBL document CHEMBL5360672, “Identification of Novel Dual-Target Estrogen Receptor α Degraders with Tubulin Inhibitory Activity for the Treatment of Endocrine-Resistant Breast Cancer” (J Med Chem, 2023)
